Experiments:
[1] = biological target: T1, NMDA receptor glycine site (Rattus norvegicus, UniProt P35439); test: Test A: Inhibition of binding of [3H]-MDL105,519 to brain membranes; conditions: inhibition of 1.2 nM [3H]MDL105,519 binding, brain membranes (rat or human not given)
T1 construct: The rat brain membranes used in the experiments were obtained from Analytical Biological Services Inc; tissue Analytical Biological Services Inc; host or cells: rat brain membranes (cerebral cortex and hippocampus, male Sprague Dawley rats)
Source text: Test A: Inhibition of Binding of [^3H]-MDL105,519:
Binding of compounds to the NMDA receptor glycine site may be assessed by measuring the ability of test compounds to inhibit the binding of tritiated MDL105,519 to brain membranes bearing the receptor.
Briefly, fresh brain tissue including cerebral cortex and hippocampus from male Sprague Dawley rats was homogenized in 0.32 M sucrose and centrifuged at low speed to separate cellular membranes from other cellular components. The membranes were then washed 3 times using deionized water, followed by treatment with 0.04% Triton X-100. Finally, membranes were washed six times in 50 mM Tris citrate buffer, pH 7.4, and frozen at −80° C. until use.
[^3H]MDL105,519 (72 Ci/mmol) was purchased from Amersham. Cold MDL105,519 was purchased from Sigma/RBI. […] On the day of the experiment, brain membranes were thawed at room temperature and suspended in 50 mM tris acetate buffer, pH 7.4 (“TAB”). Seventy-five micro grams per milliliter protein (by using the BioRad dye) were used for competition binding. The experiments were carried out using 96-well plates. […] Non specific binding was determined by using 100 μM of unlabeled MDL105,519. […] After incubation, unbound [^3H]MDL105,519 was removed by filtration onto GF/B Unifilter plates using a Packard harvester. Filters were washed four times with ice cold TAB (total of 1.2 mL buffer). The plates were dried overnight at room temperature and bound radioactivity was measured on a Packard TopCount after the addition of 45 μL per well of the MICROSCINT O.
Human Brain Membranes: Human brain membranes were obtained from Analytical Biological Services Inc., and assays were performed as described for rat membranes.
Data analysis: Data was analyzed using a Microsoft Excel spreadsheet and GraphPad Prizm software and potency of compounds is expressed as the Ki (nM).

[2] = tested on: CCI rats (thermal hyperalgesia); test: Test C: Neuropathic pain model (Chronic Constriction Injury), thermal hyperalgesia, paw withdrawal latency; type: in vivo, rat; conditions: oral
Source text: Test C: Neuropathic Pain Model (Chronic Constriction Injury):
The anti-hyperalgesic properties of a compound may be tested with the Chronic Constriction Injury (“CCI”) model. The test is a model for neuropathic pain associated with nerve injuries that can arise directly from trauma and compression, or indirectly from a wide range of diseases such as infection, cancer, metabolic conditions, toxins, nutritional deficiencies, immunological dysfunction, and musculoskeletal changes. In the model a unilateral peripheral hyperalgesia is produced in rats by nerve ligation (G. J. Bennett, et al., Pain 33, 87-107 (1988)).
Procedurally, Sprague-Dawley rats (250-350 g) are anesthetized with sodium pentobarbital and the common sciatic nerve is exposed at the level of the mid thigh by blunt dissection through the biceps femoris. A section of nerve (about 7 mm), proximal to the sciatic trifucation, is freed of tissue and ligated at four positions with chromic gut suture. The suture is tied with about 1 mm spacing between ligatures. The incision is closed in layers and the animals are allowed to recuperate. Thermal hyperalgesia is measured using a paw-withdrawal test (K. Hargreaves, et al., Pain 32, 77-88 (1988)). To perform the test, animals are habituated on an elevated glass floor. A radiant heat source is aimed at the mid-plantar hindpaw (sciatic nerve territory) through the glass floor with a 20 second cut-off used to prevent injury to the skin. The latencies for the withdrawal reflex in both hind paws are recorded.
Injured paws with ligated nerves show shorter paw withdrawal latencies compared to the uninjured or sham operated paws. Responses to test compounds are evaluated at different times after oral administration to determine the onset and duration of compound effect. When performing the test, groups of CCI rats receive either vehicle or the test compound orally three times daily for 5 days. Paw withdrawal latencies are measured each day 10 min before and 2 or 3 hr. after the first daily dose. Compound efficacy is expressed as mean percentage decrease of hyperalgesia compared to that of vehicle-treated animals, calculated as follows:
(Mean of vehicle group−Mean of compound group)×100/(Mean of vehicle group).
Data analysis was performed by the multiple means comparison test (Dunnett's test) and results are expressed and compound potencies are expressed as the MED (minimum effective dose), in mg/Kg/day, that yields a percent (%) decrease in hyperalgesia that is statistically significant.

[3] = tested on: formalin-induced nociceptive behaviors in rats; test: Test B: Formalin test (formalin-induced paw flinches); type: in vivo, rat; conditions: dose 200 (unit not given), dosed three hours prior to formalin
Source text: The Formalin test is an assay that assesses the capacity of a compound to inhibit formalin-induced nociceptive behaviors in rats (D. Dubuisson, et al., Pain 4, 161-174 (1977); H. Wheeler-Aceto et al., Psychopharmacology 104, 3544 (1991); T. J. Coderre, et al., Pain 54, 43-50 (1993)). In the test, two distinctive phases of formalin-induced behaviors are observed. A first phase response, caused by acute nociception to the noxious chemical (formalin) injected into the paw, occurs between zero and five minutes. A quiescent period of 5 to 15 min post injection follows. After the quiescent period a second phase response, caused by sensitization of the central neurons in the dorsal horn, occurs after 15 minutes and lasts up to 60 minutes. Sensitization of the central neurons in the spine augments a noxious afferent input and causes a stronger pain barrage to be transmitted to the brain. Therefore, inhibition of the second phase response indicates a central mechanism of drug action.
The procedure for the formalin test is as follows: male rats are placed in a plexiglass chamber and observed for 30-45 min. to observe their baseline activity. Animals are either pretreated with vehicle or with different doses of a test compound. Animals are dosed with vehicle or test compound three hours prior to injection of 0.05 mL of sterile 1% formalin under the dorsal skin of a hind paw. The number of paw flinches (responses) during the first phase (0-5 min.) and the second phase (20-35 min.) are scored and recorded. Flinch response is compared with the mean score of a saline control group and calculated as percentage inhibition. The ED50 is the dose of compound which produces 50% inhibition of nociceptive response in the first or second phase response. First phase responses may be inhibited by compounds that act peripherally and by compounds that act centrally. Second phase response are inhibited by centrally active compounds.
Student's t-test was used for statistical analysis to determine the significance of compound effects. Data are reported as a dose that yielded a % inhibition of a response.

- melting point: 187 to 189 °C
- Ki [1]: 39.9 nM
Structure (SMILES): Cc1cc(C)c(-n2nc(O)c3[nH]c4cc(Cl)ccc4c(=O)c3c2=O)c(C)c1 [Ex. 1, 7-Chloro-4-hydroxy-2-(2,4,6-trimethylphenyl)-1,2,5,10-tetrahydropyridazino[4,5-b]quinoline-1,10-dione]
- Test C (% Inh.): percent decrease in hyperalgesia ([2]; at the MED): 82%
- Test C MED (minimum effective dose) ([2]; three times daily for 5 days): 15 mg/kg/day
- Test B First phase Dose (% Inh.): % inhibition of nociceptive response ([3]; first phase (0-5 min)): 200 (43%)
- Test B Second phase Dose (% Inh.): % inhibition of nociceptive response ([3]; second phase (20-35 min)): 200 (54%)

Source: patent publication US20030181449A1 (priority 2003, published 2003)
